Assays:
Type in all cases: cell-based
[1] = test system: pluripotent culture; assay: HD-DoE experiment for E8 critical process parameter (CPP) media determination; conditions: 1:1 F12/IMDM hybrid media, FIG. 3
Text: To monitor the differentiation state of a pluripotent culture and track the primed state, naïve state and any early lineage commitment biases that may arise during the culture process, a network consisting of 54 genes was chosen (FIG. 1). Other genes monitored throughout this series of experiments include TERT and KI67. Maximal TERT expression is needed to sustain the pluripotent state in both naïve and primed cells while KI67, a proliferation marker, is expected to increase in the naïve state. Housekeeping genes measured within this QS chip design are used to normalize the individual experimental runs. This network of genes was then monitored using an HD-DoE methodology (Bukys et al. (2020) Iscience 23:101346) as further described in Example 2 to enable in silico modelling of the pluripotent state.
An initial HD-DoE modelling experiment was designed to determine if any of the components within the Essential 8 (E8) media were critical for pluripotent maintenance. The results of this experiment are depicted in FIG. 2. E8 media components include HEPES, bicarbonate, selenium, ascorbic acid, transferrin, insulin, FGF2 and TGF-β. HEPES, bicarbonate and selenium were not considered in this HD-DoE design, because they are additives that are not specific for the maintenance of the pluripotent state but are involved in enabling the overall growth of any cells in culture. In addition, these components are present in most generic media formulations, whereas the initial HD-DoE experiment herein utilized a 1:1 F12/IMDM hybrid media already containing HEPES, bicarbonate and selenium. In addition to the E8 components, human leukemia inhibitory factor (hLIF), AICAR (AMPK pathway agonist), CHIR 99021 (Wnt agonist/[…] antagonist), Go6983 (PKC pathway antagonist), PD0325901 (MEK pathway antagonist), and Y27632 (ROCK inhibitor) were evaluated within this design (FIG. 2). These components were selected based on previous experiments indicating the potential contribution of these components to maintenance of the pluripotent state.
Whereas the overall pluripotent state was driven by Go6983, the naïve state was favored by Y27632.

[2] = test system: pluripotent cells; assay: Adherent culture validation of TB5i media and comparison with TB7i; conditions: direct comparison between TB5i and TB7i, FIG. 7A-7B
Description: In an exemplary embodiment, a PSC culture, such as the CR01 iPSC line, is grown and maintained on vitronectin coated 6-well TC plates using a culture media of the present application, such as TB5i media. PSC cultures are generally passaged every 3-4 days and treated with agents for disrupting cell-to-cell adhesion, such as EDTA, or digestion enzymes, such as collagenase, accutase, trypsin, or […]. This can be accomplished by removing the media and washing each well of the TC plate with 2 ml of PBS. A 3-minute incubation in the presence of 5 mM EDTA can then be performed at 37 degrees C. Wells are then aspirated, and the cells are washed off from the plates and seeded in fresh media. Each well passaged is generally seeded onto 6 wells of a newly vitronectin-coated TC plate resulting in a 1 to 6 expansion of the iPSC line.

[3] = test system: pluripotent culture; assay: HD-DoE experiment for pluripotent maintenance (optimization of naïve, primed and pluripotent genes); conditions: FIG. 6A
Text: A data-driven, High-Dimensional Design of Experiments (HD-DoE)-based perturbation of a pluripotent culture was used to assay several cellular signaling pathways known to function within the pluripotent state. The HD-DOE method was applied with the intent to find conditions for directly inducing the naïve state from the pluripotent stem cell state. This example utilizes a method previously described by Bukys et al. (2020) Iscience 23:101346, which employs computerized design geometries to simultaneously test multiple process inputs and provide for mathematical modeling of a deep effector/response space. The method allows for finding combinatorial signaling inputs that control a complex differentiation process and allows testing of multiple plausible critical process parameters impacting output responses, such as gene expression. […]
To develop a cell culture recipe for growing and maintaining PSCs in cell culture and for differentiation of stem cells to naïve state progenitors, the impact of agonists and antagonists of multiple signaling pathways (herein called effectors) on the expression of pre-selected genes was tested and modeled. The impact of each effector on gene expression level is defined by a parameter called factor contribution that is calculated for each effector during the modeling. […]

[4] = test system: pluripotent colony; assay: Protein additives assayed in the TB5i formulation, with immuno-histochemical validation; conditions: additive in the TB5i formulation, FIG. 8A
Text: The protein additives FGF2, TGF-β1 and insulin were next assayed as additives in the TB5i formulation (FIG. 8A).

COc1ccc2c(c1)c(C1=C(c3c[nH]c4ccccc34)C(=O)NC1=O)cn2CCCN(C)C [Go6983]
contribution to maintaining the pluripotent state [1]: potentially aid in pluripotent maintenance

C[C@@H](N)[C@H]1CC[C@H](C(=O)Nc2ccncc2)CC1 [Y27632]
contribution to maintaining the pluripotent state [1]: potentially aid in pluripotent maintenance
benefit to the overall growth of pluripotent cells [2]: neither forskolin, nor Y27632 were beneficial
criticality to the process (sequential optimization of all naïve, primed and pluripotent genes) [3]: neither the cAMP activator forskolin, nor the ROCK pathway inhibitor were critical

O=C1O[C@H]([C@@H](O)CO)C(O)=C1O [ascorbic acid]
contribution to maintaining the pluripotent state [1]: beneficial in maintaining the pluripotent state

FGF2
growth rate of the culture [4]: increased the growth rate

TGF-β1
morphology of the pluripotent colony edges [4]: sustained normal morphology

insulin
effect on the culture [4]: little, if any beneficial effect

transferrin
contribution to maintaining the pluripotent state [1]: beneficial in maintaining the pluripotent state

From patent US20240117302A1, “COMPOSITIONS AND METHODS FOR SMALL MOLECULE BASED EXPANSION OF PLURIPOTENT STEM CELLS” (Trailhead Biosystems Inc., priority 2022, published 2024)
